US7361686B2, “Compounds for the treatment of metabolic disorders” (Wellstat Therapeutics Corporation, priority 2003, dated 2008)

System: db/db mice
Test: Antidiabetic effects in db/db mice (serum chemistry after 4 weeks of daily oral dosing)
Type: in vivo
Conditions: for blood glucose, effect in words: versus vehicle; for Triglycerides ± SEM (serum) / Glucose ± SEM (serum glucose) / Free Fatty Acids ± SEM (serum): male obese db/db mice, 100 mg/kg daily oral, treatment for 4 weeks, mean ± SEM; for Triglycerides ± SEM (serum): vehicle 621 ± 54, lean 96.4 ± 6.4; for Glucose ± SEM (serum glucose): vehicle 747 ± 19, lean control 193 ± 11; for Free Fatty Acids ± SEM (serum): vehicle 2415 ± 134, lean 1637 ± 105
From the text: Db/db mice have a defect in leptin signaling, leading to hyperphagia, obesity and diabetes. Moreover, unlike ob/ob mice on a C57BL/6J background, db/db mice on a C57BLKS background undergo failure of their insulin-producing pancreatic islet cells, resulting in progression from hyperinsulinemia (associated with peripheral insulin resistance) to hypoinsulinemic diabetes.
Male obese (db/db homozygote) C57B/Ksola mice approximately 8 weeks of age, were obtained from Jackson Labs (Bar Harbor, Me.) and randomly assigned into groups of 5-7 animals such that the body weights (40-45 g) and serum glucose levels (≧300 mg/dl in fed state) were similar between groups; male lean (db/+heterozygote) mice served as cohort controls. A minimum of 7 days was allowed for adaptation after arrival. All animals were maintained under controlled temperature (23° C.), relative humidity (50±5%) and light (7:00-19:00), and allowed free access to standard chow (Formulab Diet 5008, Quality Lab Products, Elkridge, Md.) and water.
Treatment cohorts were given daily oral doses of vehicle, compound CO (100 mg/kg), or Compound CP (100 mg/kg) for 4 weeks. At the end of the treatment period 100 μl of venous blood was withdrawn in a heparinized capillary tube from the retro-orbital sinus for serum chemistry analysis.

[1] = db/db mice, after 4 weeks of daily oral dosing, 100 mg/kg
[2] = db/db mice, after 4 weeks of daily oral dosing, 100 mg/kg, versus vehicle-treated db/db mice

| Compound | blood glucose, effect in words [1] | serum triglycerides, effect in words [2] | Triglycerides ± SEM (serum) [mg/dL] | Glucose ± SEM (serum glucose) [mg/dL] | Free Fatty Acids ± SEM (serum) [µM] | serum free fatty acids, effect in words [2] |
| --- | --- | --- | --- | --- | --- | --- |
| CCOC(=O)CC/C=C/c1cccc(OCc2c(C)cccc2C)c1 [Cpd. CO, 5-[3-(2,6-Dimethylbenzyloxy)-phenyl]-pent-4-enoic acid ethyl ester] | significant reduction | reduced | 320 ± 30 | 651 ± 36 | 2689 ± 70 |  |
| CCOC(=O)CCC/C=C/c1cccc(OCc2c(C)cccc2C)c1 [Cpd. CP, 6-[3-(2,6-Dimethylbenzyloxy)-phenyl]-hex-5-enoic acid ethyl ester] | significant reduction | reduced | 150 ± 34 | 404 ± 101 | 1765 ± 39 | reduced |
